In ChEMBL document CHEMBL4257535, “Design, synthesis and biological evaluation of AKT inhibitors bearing a piperidin-4-yl appendant” (Medchemcomm, 2018):
Calls of active or inactive are those of the source. The rule behind the calls is not given here.

Legend:
[1] = biological target: MAP kinase-interacting serine/threonine-protein kinase 1 (Homo sapiens) (UniProt Q9BUB5); assay: Inhibition of MNK1 (unknown origin) at 1 uM after 40 mins by scintillation counting method relative to control
[2] = biological target: Ribosomal protein S6 kinase alpha-1 (Homo sapiens) (UniProt Q15418); assay: Inhibition of RSK1 (unknown origin) at 1 uM after 40 mins by scintillation counting method relative to control
[3] = organism: Homo sapiens; assay: Inhibition of PKA (unknown origin) at 1 uM after 40 mins by scintillation counting method relative to control
[4] = biological target: Ribosomal protein S6 kinase (Homo sapiens) (UniProt P51812+Q9UBS0+O75676+Q15349+O75582+P23443+Q9UK32+Q15418); assay: Inhibition of p70S6K (unknown origin) at 1 uM after 40 mins by scintillation counting method relative to control; format: protein assay
[5] = biological target: Tyrosine-protein kinase ABL1 (Homo sapiens) (UniProt P00519); assay: Inhibition of ABL (unknown origin) at 1 uM after 40 mins by scintillation counting method relative to control
[6] = biological target: Serine/threonine-protein kinase B-raf (Homo sapiens) (UniProt P15056); assay: Inhibition of BRAF (unknown origin) at 1 uM after 40 mins by scintillation counting method relative to control
[7] = biological target: T1, 3-phosphoinositide-dependent protein kinase 1 (Homo sapiens) (UniProt O15530); assay: Inhibition of PDK1 (unknown origin) at 1 uM after 40 mins by scintillation counting method relative to control
T1 sequence (whole entry): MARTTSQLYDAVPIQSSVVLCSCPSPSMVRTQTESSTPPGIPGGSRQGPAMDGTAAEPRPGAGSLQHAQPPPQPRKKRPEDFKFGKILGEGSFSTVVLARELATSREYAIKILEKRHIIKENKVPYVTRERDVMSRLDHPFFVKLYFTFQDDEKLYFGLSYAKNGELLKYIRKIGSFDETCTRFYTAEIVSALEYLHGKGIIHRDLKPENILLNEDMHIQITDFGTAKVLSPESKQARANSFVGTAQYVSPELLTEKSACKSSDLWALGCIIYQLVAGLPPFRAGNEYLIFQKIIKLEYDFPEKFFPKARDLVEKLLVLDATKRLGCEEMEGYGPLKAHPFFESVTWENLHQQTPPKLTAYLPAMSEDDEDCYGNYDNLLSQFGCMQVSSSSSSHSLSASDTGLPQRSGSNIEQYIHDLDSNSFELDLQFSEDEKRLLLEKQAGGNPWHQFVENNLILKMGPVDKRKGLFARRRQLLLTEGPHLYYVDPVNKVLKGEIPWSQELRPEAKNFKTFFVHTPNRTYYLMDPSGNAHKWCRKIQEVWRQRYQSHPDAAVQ

[8] = biological target: Rho-associated protein kinase 1 (Homo sapiens) (UniProt Q13464); assay: Inhibition of ROCK1 (unknown origin) at 1 uM after 40 mins by scintillation counting method relative to control
[9] = biological target: T2, RAC-alpha serine/threonine-protein kinase (Homo sapiens, UniProt P31749); assay: Inhibition of AKT phosphorylation in human PC3 cells at 1 to 10 uM after 4 hrs by Western blot analysis; format: cell-based
[10] = biological target: T2, RAC-alpha serine/threonine-protein kinase; assay: Inhibition of AKT in human PC3 cells assessed as reduction in GSK3beta phosphorylation at 1 to 10 uM after 4 hrs by Western blot analysis; format: cell-based
[11] = test system: PC-3; assay: Induction of apoptosis in human PC3 cells assessed as early apoptotic cells at 1 uM after 48 hrs by Annexin V-FITC/propidium iodide staining based flow cytometry (reference value: 1.05%); format: functional
[12] = test system: PC-3; assay: Induction of apoptosis in human PC3 cells assessed as late apoptotic cells at 1 uM after 48 hrs by Annexin V-FITC/propidium iodide staining based flow cytometry (reference value: 0.27%); format: functional
[13] = test system: PC-3; assay: Induction of apoptosis in human PC3 cells assessed as late apoptotic cells at 10 uM after 48 hrs by Annexin V-FITC/propidium iodide staining based flow cytometry (reference value: 0.27%); format: functional
[14] = in vitro; parameters: dose or concentration left out as unconfirmed; conditions: human, liver microsomes
Description: Half life in human liver microsomes at 10 mM preincubated for 10 mins followed by NADPH addition by LC-MS analysis

T2 sequence (P31749 whole entry): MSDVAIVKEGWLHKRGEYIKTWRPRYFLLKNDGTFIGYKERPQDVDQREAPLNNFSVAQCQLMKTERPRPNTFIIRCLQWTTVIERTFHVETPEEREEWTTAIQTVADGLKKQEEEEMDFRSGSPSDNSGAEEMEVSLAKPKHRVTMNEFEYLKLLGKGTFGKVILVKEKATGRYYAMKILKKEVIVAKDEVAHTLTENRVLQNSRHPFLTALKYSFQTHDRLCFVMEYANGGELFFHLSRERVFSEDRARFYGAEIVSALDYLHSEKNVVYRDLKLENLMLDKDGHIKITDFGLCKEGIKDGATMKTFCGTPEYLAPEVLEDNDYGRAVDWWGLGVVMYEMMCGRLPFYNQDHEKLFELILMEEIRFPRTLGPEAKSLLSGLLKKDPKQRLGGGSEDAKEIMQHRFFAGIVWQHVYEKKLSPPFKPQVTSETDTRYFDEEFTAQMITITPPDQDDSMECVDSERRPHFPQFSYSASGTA
Sequence of Ribosomal protein S6 kinase alpha-1 (Homo sapiens) (Q15418 whole entry): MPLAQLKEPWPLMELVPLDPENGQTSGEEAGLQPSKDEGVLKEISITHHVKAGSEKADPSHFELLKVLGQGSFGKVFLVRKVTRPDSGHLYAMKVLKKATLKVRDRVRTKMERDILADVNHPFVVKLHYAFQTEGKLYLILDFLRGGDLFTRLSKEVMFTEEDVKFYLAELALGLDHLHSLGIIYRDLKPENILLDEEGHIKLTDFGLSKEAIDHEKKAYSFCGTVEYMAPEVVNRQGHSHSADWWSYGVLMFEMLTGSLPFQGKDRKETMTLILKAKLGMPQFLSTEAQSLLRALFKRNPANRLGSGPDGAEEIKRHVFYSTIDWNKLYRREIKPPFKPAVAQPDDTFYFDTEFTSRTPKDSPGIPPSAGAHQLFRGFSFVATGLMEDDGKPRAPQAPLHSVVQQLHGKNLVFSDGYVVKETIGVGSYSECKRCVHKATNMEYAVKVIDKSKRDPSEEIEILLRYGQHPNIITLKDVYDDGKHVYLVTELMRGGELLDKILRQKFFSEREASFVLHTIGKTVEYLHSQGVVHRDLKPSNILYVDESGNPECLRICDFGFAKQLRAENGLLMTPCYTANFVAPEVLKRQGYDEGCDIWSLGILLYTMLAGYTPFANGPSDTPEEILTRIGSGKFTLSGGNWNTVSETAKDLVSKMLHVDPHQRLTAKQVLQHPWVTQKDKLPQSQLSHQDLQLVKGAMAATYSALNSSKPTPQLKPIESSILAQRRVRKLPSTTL
Sequence of Tyrosine-protein kinase ABL1 (Homo sapiens) (P00519 whole entry): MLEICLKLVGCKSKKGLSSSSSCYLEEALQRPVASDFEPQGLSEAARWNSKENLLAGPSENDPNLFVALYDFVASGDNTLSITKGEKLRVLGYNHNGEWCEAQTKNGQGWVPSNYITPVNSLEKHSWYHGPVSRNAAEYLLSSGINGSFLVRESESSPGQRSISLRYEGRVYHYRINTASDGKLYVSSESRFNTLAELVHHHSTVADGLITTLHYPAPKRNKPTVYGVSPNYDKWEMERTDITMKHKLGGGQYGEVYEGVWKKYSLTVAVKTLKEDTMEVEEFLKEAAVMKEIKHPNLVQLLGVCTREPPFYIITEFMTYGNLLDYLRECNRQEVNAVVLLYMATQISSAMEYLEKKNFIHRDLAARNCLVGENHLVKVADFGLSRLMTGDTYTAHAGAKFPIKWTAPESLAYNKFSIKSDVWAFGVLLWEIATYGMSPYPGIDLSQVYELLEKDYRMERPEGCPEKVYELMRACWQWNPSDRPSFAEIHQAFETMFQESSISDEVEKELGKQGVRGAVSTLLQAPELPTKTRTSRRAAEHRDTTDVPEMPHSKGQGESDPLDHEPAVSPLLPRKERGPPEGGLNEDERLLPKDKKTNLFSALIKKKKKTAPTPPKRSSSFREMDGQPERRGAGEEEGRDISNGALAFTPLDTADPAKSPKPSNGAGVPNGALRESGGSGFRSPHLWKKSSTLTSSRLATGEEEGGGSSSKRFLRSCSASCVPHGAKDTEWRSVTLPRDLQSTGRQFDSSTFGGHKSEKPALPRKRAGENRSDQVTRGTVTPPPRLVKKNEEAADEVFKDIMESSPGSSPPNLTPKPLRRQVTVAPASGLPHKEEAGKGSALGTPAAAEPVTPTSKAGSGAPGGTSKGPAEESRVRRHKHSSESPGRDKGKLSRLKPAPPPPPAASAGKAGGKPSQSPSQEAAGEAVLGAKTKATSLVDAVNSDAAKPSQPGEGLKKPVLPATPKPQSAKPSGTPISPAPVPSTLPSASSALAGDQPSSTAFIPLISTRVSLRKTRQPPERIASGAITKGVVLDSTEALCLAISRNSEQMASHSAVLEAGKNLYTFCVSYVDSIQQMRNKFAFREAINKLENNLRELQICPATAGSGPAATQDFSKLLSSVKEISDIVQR
Sequence of MAP kinase-interacting serine/threonine-protein kinase 1 (Homo sapiens) (Q9BUB5 whole entry, looked up): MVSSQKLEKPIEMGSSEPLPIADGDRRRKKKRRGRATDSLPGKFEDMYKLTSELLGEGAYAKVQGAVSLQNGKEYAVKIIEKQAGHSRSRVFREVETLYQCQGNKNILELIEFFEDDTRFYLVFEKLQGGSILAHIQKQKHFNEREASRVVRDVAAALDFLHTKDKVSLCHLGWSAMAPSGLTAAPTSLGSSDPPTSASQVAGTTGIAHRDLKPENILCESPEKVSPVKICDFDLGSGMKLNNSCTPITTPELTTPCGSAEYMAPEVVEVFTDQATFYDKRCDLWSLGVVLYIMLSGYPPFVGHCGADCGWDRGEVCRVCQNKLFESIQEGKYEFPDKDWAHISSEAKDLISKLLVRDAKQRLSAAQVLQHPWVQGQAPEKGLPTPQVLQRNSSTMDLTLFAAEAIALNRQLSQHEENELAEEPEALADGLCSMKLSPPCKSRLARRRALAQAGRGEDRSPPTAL
Sequence of Serine/threonine-protein kinase B-raf (Homo sapiens) (P15056 whole entry): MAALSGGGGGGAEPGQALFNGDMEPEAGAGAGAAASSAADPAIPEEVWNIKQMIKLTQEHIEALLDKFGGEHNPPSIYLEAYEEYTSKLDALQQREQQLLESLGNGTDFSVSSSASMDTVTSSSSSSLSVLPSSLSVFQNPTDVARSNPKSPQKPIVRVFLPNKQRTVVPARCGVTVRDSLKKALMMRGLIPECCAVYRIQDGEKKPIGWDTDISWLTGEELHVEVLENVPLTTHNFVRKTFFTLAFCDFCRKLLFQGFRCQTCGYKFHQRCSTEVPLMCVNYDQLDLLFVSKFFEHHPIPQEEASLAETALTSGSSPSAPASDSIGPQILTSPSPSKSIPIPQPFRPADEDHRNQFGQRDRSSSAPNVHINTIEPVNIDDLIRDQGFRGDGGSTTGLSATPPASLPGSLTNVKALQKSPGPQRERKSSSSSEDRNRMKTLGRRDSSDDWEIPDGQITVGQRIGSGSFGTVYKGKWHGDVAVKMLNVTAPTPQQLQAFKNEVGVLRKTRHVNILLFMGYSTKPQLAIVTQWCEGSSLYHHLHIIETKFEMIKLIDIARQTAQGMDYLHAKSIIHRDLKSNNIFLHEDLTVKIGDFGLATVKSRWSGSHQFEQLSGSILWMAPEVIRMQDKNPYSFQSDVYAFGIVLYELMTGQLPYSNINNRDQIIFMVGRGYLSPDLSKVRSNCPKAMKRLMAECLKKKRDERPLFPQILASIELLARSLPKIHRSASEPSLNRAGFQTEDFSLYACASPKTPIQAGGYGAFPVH
Sequence of Rho-associated protein kinase 1 (Homo sapiens) (Q13464 2-1354 limits assumed): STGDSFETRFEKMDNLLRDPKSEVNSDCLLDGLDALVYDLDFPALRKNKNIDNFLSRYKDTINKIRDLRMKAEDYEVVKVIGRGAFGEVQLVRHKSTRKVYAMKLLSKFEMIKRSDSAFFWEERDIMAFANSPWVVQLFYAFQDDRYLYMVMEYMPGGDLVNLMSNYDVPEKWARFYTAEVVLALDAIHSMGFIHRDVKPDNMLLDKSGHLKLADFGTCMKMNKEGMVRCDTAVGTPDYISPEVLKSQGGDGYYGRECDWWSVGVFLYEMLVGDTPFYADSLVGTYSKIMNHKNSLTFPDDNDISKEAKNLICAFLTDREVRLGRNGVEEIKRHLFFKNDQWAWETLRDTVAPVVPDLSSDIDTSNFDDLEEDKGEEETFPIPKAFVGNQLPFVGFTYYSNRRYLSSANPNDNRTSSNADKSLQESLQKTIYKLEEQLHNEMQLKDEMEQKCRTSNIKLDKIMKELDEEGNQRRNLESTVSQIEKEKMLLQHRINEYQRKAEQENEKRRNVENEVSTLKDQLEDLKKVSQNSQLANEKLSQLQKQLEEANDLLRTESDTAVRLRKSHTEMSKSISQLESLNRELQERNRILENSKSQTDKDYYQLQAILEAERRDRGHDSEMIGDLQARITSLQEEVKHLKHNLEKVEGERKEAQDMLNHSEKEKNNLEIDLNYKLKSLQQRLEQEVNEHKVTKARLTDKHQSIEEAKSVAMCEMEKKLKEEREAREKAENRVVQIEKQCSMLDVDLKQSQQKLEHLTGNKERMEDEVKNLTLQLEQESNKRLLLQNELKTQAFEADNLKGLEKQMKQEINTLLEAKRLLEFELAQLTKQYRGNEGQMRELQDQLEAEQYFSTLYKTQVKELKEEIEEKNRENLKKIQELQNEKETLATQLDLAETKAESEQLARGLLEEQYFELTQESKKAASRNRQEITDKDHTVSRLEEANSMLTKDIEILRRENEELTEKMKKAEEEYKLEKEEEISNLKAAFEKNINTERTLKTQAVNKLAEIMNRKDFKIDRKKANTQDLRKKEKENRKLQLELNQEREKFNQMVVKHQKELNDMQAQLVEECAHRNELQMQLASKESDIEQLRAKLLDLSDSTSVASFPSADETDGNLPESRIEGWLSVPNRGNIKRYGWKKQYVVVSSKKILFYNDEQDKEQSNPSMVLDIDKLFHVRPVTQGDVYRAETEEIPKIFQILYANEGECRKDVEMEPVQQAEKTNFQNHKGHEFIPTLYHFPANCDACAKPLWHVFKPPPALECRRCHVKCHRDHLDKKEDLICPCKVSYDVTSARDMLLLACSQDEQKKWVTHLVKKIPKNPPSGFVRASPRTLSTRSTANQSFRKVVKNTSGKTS

O=C(N1CCN(c2ncnc3[nH]nc(Cl)c23)CC1)C1(c2ccc(Cl)c(Cl)c2)CCNCC1
inhibition [1]: 47% | inhibition [2]: 83% | inhibition [3]: 99% | inhibition [4]: 99% | inhibition [5]: inactive | inhibition [6]: inactive | inhibition [7]: inactive | inhibition [8]: inactive | inhibition [9]: Active | inhibition [10]: inactive | Activity [11]: 2.7% | Activity [12]: 4.82% | Activity [13]: 16.6% | half-life [14]: > 2.42 h
